Assay results: patent publication US5202349A, “Substituted phenylacetylenes, pharmaceutical compositions containing these compounds and processes for the preparation of these compounds and compositions” (Gruenenthal GmbH, priority 1990, dated 1993)

Legend:
5-lipoxygenase = molecular target: T1, 5-lipoxygenase (Rattus norvegicus, UniProt P12527); test: Inhibition of 5-lipoxygenase in rat basophilic leukemia cells ([14C]-arachidonic acid, TLC); format: cell-based; conditions: for IC50: rat basophilic leukemia cells, standardized to nordihydroguaiaretic acid; for Quotient (IC50 cyclooxygenase (B) / 5-lipoxygenase (A)): selectivity
T1 construct: endogenous in cells; host or cells: rat basophilic leukemia cells
T1 sequence (P12527 1-673): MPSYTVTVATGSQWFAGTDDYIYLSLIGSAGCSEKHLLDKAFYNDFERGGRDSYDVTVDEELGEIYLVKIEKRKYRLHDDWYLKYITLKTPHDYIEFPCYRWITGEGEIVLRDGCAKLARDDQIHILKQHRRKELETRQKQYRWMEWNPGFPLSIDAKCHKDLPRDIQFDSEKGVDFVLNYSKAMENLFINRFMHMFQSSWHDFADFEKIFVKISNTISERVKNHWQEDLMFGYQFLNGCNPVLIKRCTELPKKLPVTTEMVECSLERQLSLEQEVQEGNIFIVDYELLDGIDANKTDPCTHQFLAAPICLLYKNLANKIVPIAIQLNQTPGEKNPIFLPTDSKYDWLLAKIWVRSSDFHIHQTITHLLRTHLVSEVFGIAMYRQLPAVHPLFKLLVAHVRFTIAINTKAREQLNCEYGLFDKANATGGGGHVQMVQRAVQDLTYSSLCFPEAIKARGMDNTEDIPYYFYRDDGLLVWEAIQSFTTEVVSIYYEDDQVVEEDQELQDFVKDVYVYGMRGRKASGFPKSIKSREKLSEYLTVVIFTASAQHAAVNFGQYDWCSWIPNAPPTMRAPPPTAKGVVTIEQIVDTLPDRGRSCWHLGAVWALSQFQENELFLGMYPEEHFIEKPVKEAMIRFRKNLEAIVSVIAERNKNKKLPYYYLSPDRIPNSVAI
Protocol: To 1 ml each of this suspension there was added indomethacin (10 μM) and calcium chlorid (2 mM) and then the mixture was incubated in presence or absence of a test compound for 3 minutes and thereafter with 20 μM of [^14 C]-arachidonic acid and 20 μM of the calcium ionophore A 23 187 for 10 minutes. The reaction was stopped by adding 20 μl of glacial acetic acid and then the mixture was extracted with ethyl acetate to isolate the metabolites of arachidonic acid formed by the enzymatic action of 5-lipoxygenase. These were separated by thin layer chromatography using a solvent mixture known to be suitable for leukotriene analysis [c.f. Jakschik et al., Biochem. Biophys. Res. Commun. 102, 624 (1981)]. The distribution of the radioactivity to the different metabolites was measured using a TLC Linear Analyzer. By bringing into relationship the percentages of the amount of the products formed under the action of 5-lipoxygenase (5-HETE, isomers of LTB4) in the controls (tests performed in absence of test compounds) and in the presence of test compounds of formula I in different concentrations the "IC50 -value" (i.e. the concentration of the test compound which causes an 50%-inhibition of the 5-lipoxygenase) is determined. For standardization these values then were brought into relationship to the IC50 -values determined in the same manner for the standard compound nordihydroguaiaretic acid.

cyclooxygenase = molecular target: T2, cyclooxygenase (Ovis aries, UniProt P05979); test: Inhibition of cyclooxygenase in sheep seminal vesicle microsomes ([14C]-arachidonic acid, TLC); format: biochemical; conditions: pH 7.0, read-out: IC50 for inhibition of cyclooxygenase (B)
T2 construct: suspension of sheep seminal vesicle microsomes; from tissue; host or cells: sheep seminal vesicle microsomes
T2 sequence (P05979 25-600): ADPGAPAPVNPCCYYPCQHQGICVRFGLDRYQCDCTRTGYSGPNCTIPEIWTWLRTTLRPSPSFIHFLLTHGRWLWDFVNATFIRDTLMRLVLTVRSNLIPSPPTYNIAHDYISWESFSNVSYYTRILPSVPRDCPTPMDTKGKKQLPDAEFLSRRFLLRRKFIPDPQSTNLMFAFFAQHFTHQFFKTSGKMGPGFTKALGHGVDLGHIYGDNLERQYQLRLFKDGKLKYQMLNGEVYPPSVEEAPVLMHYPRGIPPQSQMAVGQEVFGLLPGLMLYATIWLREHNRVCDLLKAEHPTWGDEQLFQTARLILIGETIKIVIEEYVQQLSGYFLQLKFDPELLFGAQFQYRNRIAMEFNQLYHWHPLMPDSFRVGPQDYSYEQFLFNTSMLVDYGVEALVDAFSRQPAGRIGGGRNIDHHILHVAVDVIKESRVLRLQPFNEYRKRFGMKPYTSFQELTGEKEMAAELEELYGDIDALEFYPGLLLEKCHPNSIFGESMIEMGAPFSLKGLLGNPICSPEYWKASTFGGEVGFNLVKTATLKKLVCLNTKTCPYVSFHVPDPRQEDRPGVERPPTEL
Protocol: The effect of the test compounds on the activity of cyclooxygenase was tested using a suspension of sheep seminal vesicle microsomes in 50 mM potassium phosphate buffer of pH 7.0 which was incubated with the solvent only (as control) or with the test compound and [^14 C]-arachidonic acid. The "IC50 -values (B)" (i.e. the concentration of the test compound which causes an 50%-inhibition of the cyclooxygenase) were determined by thin layer chromatography and by means of a TLC-Linear-Analyzer.

[1] = test system: ex vivo iLTB4-formation (5-lipoxygenase activity) in whole blood of rats; test: Inhibition of ex vivo iLTB4-formation in rat whole blood after oral administration; set-up: species or system male rats (Wistar strain); conditions: Rattus norvegicus, 21.5 mg/kg oral, blood taken 1 hour later
Protocol: The bioavailability of the compounds of formula I after oral administration was characterized by means of an ex vivo biochemical assessment method described by Tateson et al. in Brit. Pharmacol., 94, 528 (1988).
Compounds of formula I were orally administered to male rats (Wistar strain). 1 hour later the rats were bled by heart puncture in letal CO2 -narcosis. The 5-lipoxygenase reaction was triggered by the addition of the calcium-ionophor A23187 to an end concentration of […] to aliquots of rat whole blood and subsequent incubation for 30 minutes at 37° C. in a water bath. At the end of the incubation the samples were centrifuged to collect the cell free plasma. The concentration of the immunoreactive LTB4 (iLTB4 ng/ml) in each plasma sample was determined by a LTB4 -radioimmunoassay (^3 H-LTB4 -RIA, Amersham) by means of a LTB4 -standard curve in diluted rat plasma. For calculation of the percent inhibition of ex vivo iLTB4 -formation in whole blood of rats treated with the compounds of formula I rats treated with appropiate vehicle solution were included in all experiments, aliquots of their blood were run in parallel and were processed in the same way as described. The mean iLTB4 -formation per ml plasma of these vehicle treated control rats served as 100 percent value of normal control 5-lipoxygenase activity. The percent inhibition of the ex vivo iLTB4 -formation after oral administration of compounds of formula I was calculated as follows: 100 minus 100 times the quotient of the mean iLTB4 concentration per ml plasma of the rats treated with compounds of formula I […] and the mean iLTB4 concentration per ml plasma of the control rats.

[2] = test system: endotoxin/galactosamine-induced hepatitis, increase of liver specific enzymes in the serum; test: Endotoxin/galactosamine-induced hepatitis in mice (septic shock model); format: in vivo; conditions: 10 mg/kg i.p. for each of five applications, 8 hours after endotoxin
Protocol: As a test model to evaluate the effects of test compounds in septic shock the endotoxin/galactosamine-induced hepatitis in mice has been used. […] The intraperitoneal application of 5-lipoxygenase inhibitors 30 minutes before, simultaneously with and 2, 4 and 6 hours after the application of endotoxin inhibitis the hepatitis-induced increase of the serum activities of these enzymes. On administration of compounds of the formula I in doses of 10 mg/kg for each of the five applications the following percentual inhibitions of the increase of the enzymes GPT and SDH were achieved (the increase of enzymatic activities in control animals was set at 100%): […]

SMILES | IC50 (5-lipoxygenase) [nM] | Quotient (IC50 cyclooxygenase (B) / 5-lipoxygenase (A)) (5-lipoxygenase) | IC50 (cyclooxygenase) [nM] | inhibition in vivo at 21.5 mg/kg [1] [%] | Inhibition of increase of GPT [2] [%] | Inhibition of increase of SDH [2] [%]
CC(=O)N(O)C(C)c1ccc(C#Cc2ccccc2)cc1 (stereo not drawn) [Example 2a, N-{1-[4-(Phenylethynyl)-phenyl]-ethyl}-acetohydroxamic acid] |  |  |  | 76 |  | 
CC(c1ccc(C#Cc2cccs2)cc1)N(O)C(N)=O (stereo not drawn) [Example 15, N-Hydroxy-N-{1-[4-(thien-2-yl-ethynyl)-phenyl]-ethyl}-urea] | 410 | 1220 | 500000 | 77 |  | 
NC(=O)N(O)Cc1cccc(C#Cc2cccc3ccccc23)c1 [Example 7, N-Hydroxy-N-[-3-(naphth-1-yl-ethynyl)-benzyl]-urea] | 650 | > 769 | > 500000 | 90 |  | 
CC(c1cccc(C#Cc2ccc(C(F)(F)F)cc2)c1)N(O)C(N)=O (stereo not drawn) [Example 11, N-Hydroxy-N-{1-[3-(4-trifluoromethyl-phenylethynyl)-phenyl]-ethyl}-urea] | 670 | > 746 | > 500000 | 76 |  | 
COc1ccc(C#Cc2cccc(CN(O)C(C)=O)c2)cc1 [Example 4, N-[3-(4-Methoxy-phenylethynyl)-benzyl]-acetohydroxamic acid] |  |  |  |  | 87 | 81
CC(C)c1ccc(C#Cc2cccc(CN(O)C(N)=O)c2)cc1 [Example 10e] |  |  |  | 81 |  | 
CC(=O)N(O)Cc1cccc(C#Cc2ccc(C(C)C)cc2)c1 [Example 5e, N-[3-(4-Isopropyl-phenylethynyl)-benzyl]-acetohydroxamic acid] |  |  |  | 82 |  | 
CC(c1cccc(C#Cc2ccc(F)cc2)c1)N(O)C(N)=O (stereo not drawn) [Example 8b, N-Hydroxy-N-{1-[3-(4-fluorophenylethynyl)-phenyl]-ethyl}-urea] |  |  |  | 99 |  | 
CC(=O)N(O)C(C)c1cccc(C#Cc2ccc(Cl)cc2)c1 (stereo not drawn) [Example 12, N-{1-[3-(4-Chloro-phenylethynyl)-phenyl]-ethyl}-acetohydroxamic acid] |  |  |  | 87 |  | 

Second part, led by results:

IC50 (5-lipoxygenase) [nM] | Quotient (IC50 cyclooxygenase (B) / 5-lipoxygenase (A)) (5-lipoxygenase) | IC50 (cyclooxygenase) [nM] | SMILES | inhibition in vivo at 21.5 mg/kg [1] [%] | Inhibition of increase of GPT [2] [%] | Inhibition of increase of SDH [2] [%]
550 | 909 | 500000 | CC(c1cccc(C#Cc2ccc(Cl)cc2)c1)N(O)C(N)=O (stereo not drawn) [Example 10d, N-Hydroxy-N-{1-[3-(4-chloro-phenylethynyl)-phenyl]-ethyl}-urea] | 99 |  | 
410 | 1220 | 500000 | NC(=O)N(O)Cc1ccc(C#Cc2ccsc2)cc1 [Example 16f, N-Hydroxy-N-[4-(thien-3-yl-ethynyl)-benzyl]-urea] | 97 |  | 
690 | > 725 | > 500000 | COc1ccc(C#Cc2cccc(C(C)N(O)C(N)=O)c2)cc1OC (stereo not drawn) [Example 10b, N-Hydroxy-N-{1-[3-(3,4-dimethoxy-phenylethynyl)-phenyl]-ethyl}-urea] | 86 |  | 
370 | 1351 | 500000 | NC(=O)N(O)Cc1ccc(C#Cc2cccs2)cc1 [Example 16d, N-Hydroxy-N-[4-(thien-2-yl-ethynyl)-benzyl]-urea] |  |  | 
320 | 844 | 270000 | COc1ccccc1C#Cc1cccc(C(C)N(O)C(N)=O)c1 (stereo not drawn) [Example 10g, N-Hydroxy-N-{1-[3-(2-methoxy-phenylethynyl)-phenyl]-ethyl}-urea] |  |  | 
180 | > 2778 | > 500000 | COc1ccc(C#Cc2cccc(CN(O)C(N)=O)c2)cc1 [Example 10n, N-Hydroxy-N-[3-(4-methoxyphenylethynyl)-benzyl]-urea] |  |  | 
270 | > 1852 | > 500000 | COc1cccc(C#Cc2cccc(C(C)N(O)C(N)=O)c2)c1 (stereo not drawn) [Example 10c, N-Hydroxy-N-{1-[3-(3-methoxy-phenylethynyl)-phenyl]-ethyl}-urea] |  |  | 
290 | 1724 | 500000 | CC(c1ccc(C#Cc2ccsc2)cc1)N(O)C(N)=O (stereo not drawn) [Example 16b, N-Hydroxy-N-{1-[4-(thien-3-yl-ethynyl)-phenyl]-ethyl}-urea] | 91 |  | 
260 | > 1923 | > 500000 | NC(=O)N(O)Cc1cccc(C#Cc2ccc(Cl)cc2)c1 [Example 10m, N-Hydroxy-N-[3-(4-chlorophenylethynyl)-benzyl]-urea] |  |  | 
280 | > 1786 | > 500000 | COc1ccc(C#Cc2cccc(C(C)N(O)C(C)=O)c2)cc1OC (stereo not drawn) [Example 5b, N-{1-[3-(3,4-Dimethoxy-phenylethynyl)-phenyl]-ethyl}-acetohydroxamic acid] |  |  | 
580 | > 862 | > 500000 | COc1cccc(C#Cc2cccc(C(C)N(O)C(C)=O)c2)c1 (stereo not drawn) [Example 5c, N-{1-[3-(3-Methoxy-phenylethynyl)-phenyl]-ethyl}-acetohydroxamic acid] | 88 |  | 
